The text below walks through data of patent publication US7635685B2 (priority 2003, dated 2009).

Converted amounts (≈) assume the structure as drawn. “And” between values parts separate entries of the source, which are not always exact repeats. Identical values can stand only once. Like-named read-outs stand apart in the source and are kept apart here.

In data set [1] the target is 27-mer 16S A site RNA construct (AS-wt). It counts as binding.
Data set [2] concerns B. anthracis (Sterne strain). In words: microbe, parasite or virus in culture. It is filed as cell-based, Bacillus anthracis.
Another data set has as its system E. coli strains. The data set can be described thus: microbe, parasite or virus in culture. It is filed as cell-based.
The test system of another data set is E. coli XL1(pET9d). In words: microbe, parasite or virus in culture. It is filed as cell-based.
Data set [3] concerns Pseudomonas aeruginosa (ATCC 27853). The data set can be described thus: microbe, parasite or virus in culture. It is filed as cell-based.
Data set [4] relates to Salmonella virchow (SV49). In words: microbe, parasite or virus in culture. It is filed as cell-based.
The test system of data set [5] is Staphylococcus epidermidis. In words: microbe, parasite or virus in culture. It is filed as cell-based.
The subject of the next data set is Bacillus subtilis. In words: microbe, parasite or virus in culture. It counts as cell-based.
For data set [6] the following is noted: in vivo; cited from earlier work.
Data set [7] relates to adenylyl(3′-5′)-adenosine (ApA). Particulars: cited from earlier work.

For the compound `NCC1O[C@H](OC2C(O)[C@H](OC3C(O)[C@H](N)CC(N)[C@H]3O[C@H]3OC(CN)[C@@H](O)C(O)C3N)O[C@@H]2CO[C@@H]2OC(CO)[C@@H](O)C(O)C2O)C(N)C(O)[C@@H]1O` (stereo partly shown) [Compound XII], the dissociation constant Kd in data set [1] (read-out: Kd) amounted to 1100 ± 200 nM. The same compound displayed an MIC in data set [2] (Bacillus anthracis, 18 h) of 8 µg/mL (≈ 10.3 µM).

Regarding `NCC1O[C@H](O[C@@H]2C(N)C[C@@H](N)C(O)[C@H]2O[C@@H]2O[C@H](CS[C@@H]3O[C@H](CO)[C@H](O)C3O)[C@H](O[C@H]3O[C@@H](CN)[C@@H](O)C(O)C3N)C2O)C(N)[C@@H](O)[C@@H]1O` (stereo partly shown) [Compound XI], the Kd in data set [1] (read-out: Kd) is 1000 ± 200 nM. Besides, the MIC was 2 µg/mL (≈ 2.62 µM) in data set [2] (Bacillus anthracis, 18 h); 30 to 40 µg/mL (≈ 39.3 to 52.4 µM) against E. coli strains (Escherichia coli); 25 to 40 µg/mL (≈ 32.8 to 52.4 µM) in the data set with E. coli strains (Escherichia coli, ATCC25922); above 200 µg/mL against E. coli XL1(pET9d) (Escherichia coli); 200 to 400 µg/mL (≈ 262 to 524 µM) in data set [3] (Pseudomonas aeruginosa, ATCC27853); above 250 µg/mL in data set [4] (Salmonella enterica). For the same compound, the MIC lay in the range of 1.5 to 3 µg/mL (≈ 1.97 to 3.93 µM) in [5] (Staphylococcus epidermidis, ATCC12228) and 1 to 2.5 µg/mL (≈ 1.31 to 3.28 µM) against Bacillus subtilis (Bacillus subtilis, ATCC6633).

In the case of `NC[C@H]1O[C@H](O[C@H]2[C@H](O)[C@@H](O[C@H]3O[C@H](CO)[C@@H](O)[C@H](N)[C@H]3O)[C@H](N)C[C@@H]2N)[C@H](O)[C@@H](O)[C@@H]1O` [KAN], the MIC against E. coli XL1(pET9d) lay in the range of 260 to 270 µg/mL; in data set [3], 400 to 500 µg/mL; in data set [4], 500 to 570 µg/mL.

In the case of `NC[C@@H]1O[C@H](O[C@H]2[C@@H](O)[C@H](O[C@@H]3[C@@H](O)[C@H](N)C[C@H](N)[C@H]3O[C@H]3O[C@H](CO)[C@@H](O)C[C@H]3N)O[C@@H]2CO)[C@H](N)[C@@H](O)[C@@H]1O[C@H]1O[C@H](CO)[C@@H](O)[C@H](O)[C@@H]1O` [lividomycin], the LD50 in [6] is 280 mg/kg.

For `NC[C@@H]1O[C@H](O[C@H]2[C@@H](O)[C@H](O[C@@H]3[C@@H](O)[C@H](N)C[C@H](N)[C@H]3O[C@H]3O[C@H](CO)[C@@H](O)[C@H](O)[C@H]3N)O[C@@H]2CO)[C@H](N)[C@@H](O)[C@@H]1O` [paromomycin], the LD50 in [6] was 160 mg/kg.

For the compound `NC[C@H]1O[C@H](O[C@H]2[C@H](O[C@@H]3O[C@H](CO)[C@@H](O)[C@H]3O)[C@@H](O)[C@H](N)C[C@@H]2N)[C@H](N)[C@@H](O)[C@@H]1O` [ribostamycin], the LD50 in data set [6] is 260 mg/kg.

With neomycin B, the equilibrium dissociation constant (Kd) in data set [1] (read-out: binding constant Kd to 16S A site RNA) turned out to be 300 nM. Moreover, the MIC in data set [2] was 0.25 µg/mL; in the data set on E. coli strains, 4 to 5.5 µg/mL and 8 to 10 µg/mL; in the data set with E. coli XL1(pET9d), 50 to 60 µg/mL; in data set [3], 55 to 60 µg/mL; in [4] it was 200 to 250 µg/mL; in data set [5], 0.3 to 0.4 µg/mL. In the data set on Bacillus subtilis, this compound registered an MIC of 0.8 to 0.9 µg/mL. The “first-order rate constants lower than those reported for natural ribozymes” value in data set [7] is “over 1000 fold”. Further, in data set [7], the “hydrolysis of ApA faster than 1,3-propanediamine” value was 3 fold. Also, the median lethal dose (LD50) in [6] is on record as 24 mg/kg.

For orientation: Kd means the constant that tells how readily two partners part at equilibrium. By LD50 is commonly meant the dose at which mortality reaches 50%.
